Assay results published in patent US20240150293A1, “SPIROCYCLOHEXANE DERIVATIVES, PHARMACEUTICAL COMPOSITIONS CONTAINING THEM AND THEIR USES AS ANTI-APOPTOTIC INHIBITORS” (LES LABORATOIRES SERVIER, priority 2021, published 2024).
pIC50, pKi: −log10 of the molar value. Where two headings read alike, the source gives them in different places.

Key:
[1] = target: Cy5-labelled Mcl1 (amino acids 171-321) C286S protein (UniProtKB Q07820) (Homo sapiens (Human), UniProt Q07820, C286S); experiment: Inhibition of Mcl-1 by the fluorescence quenching assay (Example A, Method B); assay type: binding
Outline: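 Eleven-point compound series incubated 2 h at room temperature with 1 nM Cy5-tagged protein and quencher-labelled PUMA peptide at 10, 20 or 400 nM in HEPES/NaCl/Tween 20, pH 7.4, 5% DMSO. IC50 for 50% fluorescence increase by 4-parameter fit, then Ki derived (complete cKi or estimated eKi).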

NCI-H929 cell lines = experiment: In vitro cytotoxicity, CellTiter-Glo (CTG) assay (Example B, Method B); assay type: cell-based; conditions: Homo sapiens, NCI-H929, 48 h, NCI-H929 cells, 48 h incubation, read-out: C50
Outline: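 ATP-based luminescence (CellTiter-Glo) after 48 h incubation at 37° C., 5% CO2 gave NCI-H929 viability. Eleven concentrations tested, highest final 30 μM, dispensed acoustically from 10 mM DMSO stocks; C50 defined as concentration reaching 50% viability.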

Sequence of Cy5-labelled Mcl1 (amino acids 171-321) C286S protein (Q07820 171-321 C286S): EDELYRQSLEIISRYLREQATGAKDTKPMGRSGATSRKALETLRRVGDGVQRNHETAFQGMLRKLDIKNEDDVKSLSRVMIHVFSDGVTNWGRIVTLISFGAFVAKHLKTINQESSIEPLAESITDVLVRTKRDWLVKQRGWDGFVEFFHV

Row | SMILES | pKi [1] | pIC50 (NCI-H929 cell lines) | pKi ([1]; Ki determined from IC50)
1 | COc1cccc(-c2ccc3c(c2)[C@]2(CC[C@@](Nc4cccc(Cl)c4)(C(=O)O)CC2)[C@@H](C[C@@H](C)COc2ccnc4c2[C@H](C)CCC4)C3)c1 [Example 877, (1r,2′S,4S)-4-(3-chloroanilino)-6′-(3-methoxyphenyl)-2′-[(2R)-2-methyl-3-{[(5R)-5-methyl-5,6,7,8-tetrahydroquinolin-4-yl]oxy}propyl]-2′,3′-dihydrospiro[cyclohexane-1,1′-indene]-4-carboxylic acid] | 9.19 | 6.30 | 
2 | COCc1cc2c(cc1F)C[C@H](C[C@@H](C)COc1ccnc3c1[C@H](C)CCC3)[C@]21CC[C@](Nc2cccc(Cl)c2)(C(=O)O)CC1 [Example 921, (1r,2′S,4S)-4-(3-chloroanilino)-5′-fluoro-6′-(methoxymethyl)-2′-[(2R)-2-methyl-3-{[(5R)-5-methyl-5,6,7,8-tetrahydroquinolin-4-yl]oxy}propyl]-2′,3′-dihydrospiro[cyclohexane-1,1′-indene]-4-carboxylic acid] | 10.97 | 7.44 | 
3 | C[C@@H](COc1ccnc2c1[C@H](C)CCC2)C[C@H]1Cc2cc3c(cc2[C@]12CC[C@@](Nc1cccc(Cl)c1)(C(=O)O)CC2)OCC1(CC1)CO3 [Example 994, (1r,4S,8′S)-4-(3-chloroanilino)-8′-[(2R)-2-methyl-3-{[(5R)-5-methyl-5,6,7,8-tetrahydroquinolin-4-yl]oxy}propyl]-8′,9′-dihydro-2′H,4′H-dispiro[cyclohexane-1,7′-indeno[5,6-b][1,4]dioxepine-3′,1″-cyclopropane]-4-carboxylic acid] | 10.35 | 7.22 | 
4 | C[C@@H](COc1ccnc2c1[C@H](C)CCC2)C[C@@H]1Cc2ccc(-c3ccsc3)cc2[C@]12CC[C@@](Nc1cccc(Cl)c1)(C(=O)O)CC2 [Example 879, (1r,2′R,4R)-4-(3-chloroanilino)-2′-[(2R)-2-methyl-3-{[(5R)-5-methyl-5,6,7,8-tetrahydroquinolin-4-yl]oxy}propyl]-6′-(thiophen-3-yl)-2′,3′-dihydrospiro[cyclohexane-1,1′-indene]-4-carboxylic acid] | 8.39 | 5.87 | 
5 | C[C@@H](COc1ccnc2c1[C@H](C)CCC2)C[C@H]1Cc2cc3c(cc2[C@]12CC[C@@](Nc1cccc(Cl)c1)(C(=O)O)CC2)O[C@H](C)CCO3 [Example 987, (1r,4S,4′R,8′S)-4-(3-chloroanilino)-4′-methyl-8′-[(2R)-2-methyl-3-{[(5R)-5-methyl-5,6,7,8-tetrahydroquinolin-4-yl]oxy}propyl]-3′,4′,8′,9′-tetrahydro-2′H-spiro[cyclohexane-1,7′-indeno[5,6-b][1,4]dioxepine]-4-carboxylic acid] | 11.35 | 7.42 | 
6 | C[C@@H](COc1ccnc2c1[C@H](C)CC[C@H]2C)C[C@H]1Cc2cc3c(cc2[C@]12CC[C@@](Nc1cccc(Cl)c1)(C(=O)O)CC2)OCCO3 [Example 963, (1r,4S,7′S)-4-(3-chloroanilino)-7′-[(2R)-3-{[(5R,8R)-5,8-dimethyl-5,6,7,8-tetrahydroquinolin-4-yl]oxy}-2-methylpropyl]-2′,3′,7′,8′-tetrahydrospiro[cyclohexane-1,6′-indeno[5,6-b][1,4]dioxine]-4-carboxylic acid] | 10.63 | 7.01 | 
7 | C[C@@H]1CCCc2nccc(OC[C@@H](C[C@H]3Cc4ccccc4[C@]34CC[C@@](Nc3cccc(Cl)c3)(C(=O)O)CC4)c3ccccc3)c21 [Example 797, (1r,2′S,4S)-4-(3-chloroanilino)-2′-[(2S)-3-{[(5R)-5-methyl-5,6,7,8-tetrahydroquinolin-4-yl]oxy}-2-phenylpropyl]-2′,3′-dihydrospiro[cyclohexane-1,1′-indene]-4-carboxylic acid] | 9.59 | 6.60 | 
8 | COC[C@@H]1C[C@H]1c1ccc2c(c1)[C@]1(CC[C@@](Nc3cccc(Cl)c3)(C(=O)O)CC1)[C@@H](C[C@@H](C)COc1ccnc3c1[C@H](C)CCC3)C2 [Example 875, (1r,2′S,4S)-4-(3-chloroanilino)-6′-[(1R,2R)-2-(methoxymethyl)cyclopropyl]-2′-[(2R)-2-methyl-3-{[(5R)-5-methyl-5,6,7,8-tetrahydroquinolin-4-yl]oxy}propyl]-2′,3′-dihydrospiro[cyclohexane-1,1′-indene]-4-carboxylic acid] | 10.07 | 7.22 | 
9 | C[C@@H](COc1ccnc2c1[C@H](C)CCC2)C[C@H]1Cc2cc3c(cc2[C@]12CC[C@@](Nc1cccc(Cl)c1)(C(=O)O)CC2)OCC(C)(C)CO3 [Example 981, (1r,4S,8′S)-4-(3-chloroanilino)-3′,3′-dimethyl-8′-[(2R)-2-methyl-3-{[(5R)-5-methyl-5,6,7,8-tetrahydroquinolin-4-yl]oxy}propyl]-3′,4′,8′,9′-tetrahydro-2′H-spiro[cyclohexane-1,7′-indeno[5,6-b][1,4]dioxepine]-4-carboxylic acid] | 10.62 | 7.07 | 
10 | C[C@@H](COc1ccnc2c1[C@H](C)CCC2)C[C@H]1Cc2cc3c(cc2[C@]12CC[C@@](Nc1cccc(Cl)c1)(C(=O)NS(C)(=O)=O)CC2)OCO3 [Example 957, (1r,4S,6′S)-4-(3-chloroanilino)-N-(methanesulfonyl)-6′-[(2R)-2-methyl-3-{[(5R)-5-methyl-5,6,7,8-tetrahydroquinolin-4-yl]oxy}propyl]-6′,7′-dihydro-2′H-spiro[cyclohexane-1,5′-indeno[5,6-d][1,3]dioxole]-4-carboxamide] | 8.20 | 5.33 | 
11 | CC(=O)OC(C)OC(=O)[C@]1(Nc2cccc(Cl)c2)CC[C@@]2(CC1)c1cc3c(cc1C[C@@H]2C[C@@H](C)COc1ccnc2c1[C@H](C)CCC2)OCO3 (stereo partly drawn) [Example 939, 1-(acetyloxy)ethyl (1r,4S,6′S)-4-(3-chloroanilino)-6′-[(2R)-2-methyl-3-{[(5R)-5-methyl-5,6,7,8-tetrahydroquinolin-4-yl]oxy}propyl]-6′,7′-dihydro-2′H-spiro[cyclohexane-1,5′-indeno[5,6-d][1,3]dioxole]-4-carboxylate] | 8.77 | 6.80 | 
12 | CCOc1cc2c(cc1C)CC(C[C@@H](C)COc1ccnc3c1[C@H](C)CCC3)[C@]21CC[C@](Nc2cccc(Cl)c2)(C(=O)O)CC1 (stereo partly drawn) [Example 824, (1r,4R)-4-(3-chloroanilino)-6′-ethoxy-5′-methyl-2′-[(2R)-2-methyl-3-{[(5R)-5-methyl-5,6,7,8-tetrahydroquinolin-4-yl]oxy}propyl]-2′,3′-dihydrospiro[cyclohexane-1,1′-indene]-4-carboxylic acid] | 9.48 | 6.38 | 
13 | C[C@@H](COc1ccnc2c1[C@H](C)CCC2)C[C@H]1Cc2cc3c(cc2[C@]12CC[C@@](Nc1cccc(Cl)c1)(C(=O)O)CC2)OC[C@@H](C)O3 [Example 974, (1r,2′R,4S,7′S)-4-(3-chloroanilino)-2′-methyl-7′-[(2R)-2-methyl-3-{[(5R)-5-methyl-5,6,7,8-tetrahydroquinolin-4-yl]oxy}propyl]-2′,3′,7′,8′-tetrahydrospiro[cyclohexane-1,6′-indeno[5,6-b][1,4]dioxine]-4-carboxylic acid] | 10.64 | 7.22 | 
14 | C[C@@H](COc1ccnc2c1[C@H](C)CCC2)C[C@H]1Cc2cc3c(cc2[C@]12CC[C@@](Nc1cccc(Cl)c1F)(C(=O)O)CC2)OCO3 [Example 846, (1r,4S,6′S)-4-(3-chloro-2-fluoroanilino)-6′-[(2R)-2-methyl-3-{[(5R)-5-methyl-5,6,7,8-tetrahydroquinolin-4-yl]oxy}propyl]-6′,7′-dihydro-2′H-spiro[cyclohexane-1,5′-indeno[5,6-d][1,3]dioxole]-4-carboxylic acid] | 9.98 | 7.38 | 
15 | CC1Oc2cc3c(cc2O1)[C@]1(CC[C@@](Nc2cccc(Cl)c2)(C(=O)O)CC1)[C@@H](C[C@@H](C)COc1ccnc2c1[C@H](C)CCC2)C3 (single isomer, unassigned) [Example 965] | 10.76 | 7.16 | 
16 | C[C@@H](COc1ccnc2c1[C@H](C)CCC2)C[C@H]1Cc2cc3c(cc2[C@]12CC[C@@](Nc1cccc(Cl)c1)(C(=O)O)CC2)OC[C@H](C)O3 [Example 971, (1r,2′S,4S,7′S)-4-(3-chloroanilino)-2′-methyl-7′-[(2R)-2-methyl-3-{[(5R)-5-methyl-5,6,7,8-tetrahydroquinolin-4-yl]oxy}propyl]-2′,3′,7′,8′-tetrahydrospiro[cyclohexane-1,6′-indeno[5,6-b][1,4]dioxine]-4-carboxylic acid] | 10.84 | 7.39 | 
17 | C[C@@H](COc1ccnc2c1[C@H](C)CCC2)CN1Cc2cc3c(cc2[C@]12CC[C@@](Nc1ccc(F)c(Cl)c1)(C(=O)O)CC2)OCO3 [Example 47, (1s,4S)-4-(3-chloro-4-fluoroanilino)-6′-[(2R)-2-methyl-3-{[(5R)-5-methyl-5,6,7,8-tetrahydroquinolin-4-yl]oxy}propyl]-6′,7′-dihydro-2′H-spiro[cyclohexane-1,5′-[1,3]dioxolo[4,5-f]isoindole]-4-carboxylic acid] |  | 7.43 | 10.03
18 | C[C@@H](COc1ccnc2c1[C@H](C)CCC2)C[C@H]1Cc2cc3c(cc2[C@]12CC[C@@](Nc1cccc(Cl)c1)(C(=O)O)CC2)O[C@H](C)[C@@H](C)O3 [Example 976, (1r,2′R,3′R,4S,7′S)-4-(3-chloroanilino)-2′,3′-dimethyl-7′-[(2R)-2-methyl-3-{[(5R)-5-methyl-5,6,7,8-tetrahydroquinolin-4-yl]oxy}propyl]-2′,3′,7′,8′-tetrahydrospiro[cyclohexane-1,6′-indeno[5,6-b][1,4]dioxine]-4-carboxylic acid] | 10.79 | 7.14 | 
